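Results reflect a 48-hour exposure of cells in 96-well plates to compound at five concentrations. TGI marks complete inhibition of growth.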
Key:
Test in all cases: DTP human tumour cell line panel, 48 h
786-0 renal = system: 786-0 renal
A498 renal = system: A498 renal
A549 NSCLC = system: A549 NSCLC
ACHN renal = system: ACHN renal
BT-549 breast = system: BT-549 breast
CAKI-1 renal = system: CAKI-1 renal
CCRF-CEM leukemia = system: CCRF-CEM leukemia
COLO 205 colon = system: COLO 205 colon
DU-145 prostate = system: DU-145 prostate
EKVX NSCLC = system: EKVX NSCLC
HCC-2998 colon = system: HCC-2998 colon
HCT-116 colon = system: HCT-116 colon
HCT-15 colon = system: HCT-15 colon
HL-60(TB) leukemia = system: HL-60(TB) leukemia
HOP-62 NSCLC = system: HOP-62 NSCLC
HOP-92 NSCLC = system: HOP-92 NSCLC
HS 578T breast = system: HS 578T breast
HT29 colon = system: HT29 colon
IGROV1 ovarian = system: IGROV1 ovarian
K-562 leukemia = system: K-562 leukemia
KM12 colon = system: KM12 colon
LOX IMVI melanoma = system: LOX IMVI melanoma
M14 melanoma = system: M14 melanoma
MALME-3M melanoma = system: MALME-3M melanoma
MCF7 breast = system: MCF7 breast
MDA-MB-231 breast = system: MDA-MB-231 breast
MDA-MB-435 = system: MDA-MB-435
MDA-N = system: MDA-N
MOLT-4 leukemia = system: MOLT-4 leukemia
NCI-H226 lung = system: NCI-H226 lung
NCI-H23 lung = system: NCI-H23 lung
NCI-H460 lung = system: NCI-H460 lung
NCI-H522 lung = system: NCI-H522 lung
NCI/ADR-RES ovarian = system: NCI/ADR-RES ovarian
OVCAR-3 ovarian = system: OVCAR-3 ovarian
OVCAR-4 ovarian = system: OVCAR-4 ovarian
OVCAR-5 ovarian = system: OVCAR-5 ovarian
OVCAR-8 ovarian = system: OVCAR-8 ovarian
PC-3 prostate = system: PC-3 prostate
RPMI-8226 leukemia = system: RPMI-8226 leukemia
RXF 393 renal = system: RXF 393 renal
SF-268 CNS = system: SF-268 CNS
SF-295 CNS = system: SF-295 CNS
SF-539 CNS = system: SF-539 CNS
SK-MEL-2 melanoma = system: SK-MEL-2 melanoma
SK-MEL-28 melanoma = system: SK-MEL-28 melanoma
SK-MEL-5 melanoma = system: SK-MEL-5 melanoma
SK-OV-3 ovarian = system: SK-OV-3 ovarian
SN12C renal = system: SN12C renal
SNB-19 CNS = system: SNB-19 CNS
SNB-75 CNS = system: SNB-75 CNS
SR leukemia = system: SR leukemia
SW-620 colon = system: SW-620 colon
T-47D breast = system: T-47D breast
TK-10 renal = system: TK-10 renal
U251 CNS = system: U251 CNS
UACC-257 melanoma = system: UACC-257 melanoma
UACC-62 melanoma = system: UACC-62 melanoma
UO-31 renal = system: UO-31 renal

Structure (SMILES): CC(C(=O)OCc1ccccc1)(c1ccco1)N1C(=O)OC(c2ccccc2)C1c1ccccc1 (stereo unspecified)
- TGI (786-0 renal): > 100 µM
- TGI (A498 renal): > 100 µM
- TGI (A549 NSCLC): > 100 µM
- TGI (ACHN renal): > 100 µM
- TGI (BT-549 breast): > 100 µM
- TGI (CAKI-1 renal): > 100 µM
- TGI (CCRF-CEM leukemia): > 100 µM
- TGI (COLO 205 colon): > 100 µM
- TGI (DU-145 prostate): > 100 µM
- TGI (EKVX NSCLC): > 100 µM
- TGI (HCC-2998 colon): > 100 µM
- TGI (HCT-116 colon): > 100 µM
- TGI (HCT-15 colon): > 100 µM
- TGI (HL-60(TB) leukemia): > 100 µM
- TGI (HOP-62 NSCLC): > 100 µM
- TGI (HOP-92 NSCLC): > 100 µM
- TGI (HS 578T breast): > 100 µM
- TGI (HT29 colon): > 100 µM
- TGI (IGROV1 ovarian): > 100 µM
- TGI (K-562 leukemia): > 100 µM
- TGI (KM12 colon): > 100 µM
- TGI (LOX IMVI melanoma): > 100 µM
- TGI (M14 melanoma): > 100 µM
- TGI (MALME-3M melanoma): > 100 µM
- TGI (MCF7 breast): > 100 µM
- TGI (MDA-MB-231 breast): > 100 µM
- TGI (MDA-MB-435): > 100 µM
- TGI (MDA-N): > 100 µM
- TGI (MOLT-4 leukemia): > 100 µM
- TGI (NCI-H226 lung): > 100 µM
- TGI (NCI-H23 lung): > 100 µM
- TGI (NCI-H460 lung): > 100 µM
- TGI (NCI-H522 lung): > 100 µM
- TGI (NCI/ADR-RES ovarian): > 100 µM
- TGI (OVCAR-3 ovarian): > 100 µM
- TGI (OVCAR-4 ovarian): > 100 µM
- TGI (OVCAR-5 ovarian): > 100 µM
- TGI (OVCAR-8 ovarian): > 100 µM
- TGI (PC-3 prostate): > 100 µM
- TGI (RPMI-8226 leukemia): > 100 µM
- TGI (RXF 393 renal): > 100 µM
- TGI (SF-268 CNS): > 100 µM
- TGI (SF-295 CNS): > 100 µM
- TGI (SF-539 CNS): > 100 µM
- TGI (SK-MEL-2 melanoma): > 100 µM
- TGI (SK-MEL-28 melanoma): > 100 µM
- TGI (SK-MEL-5 melanoma): > 100 µM
- TGI (SK-OV-3 ovarian): > 100 µM
- TGI (SN12C renal): > 100 µM
- TGI (SNB-19 CNS): > 100 µM
- TGI (SNB-75 CNS): > 100 µM
- TGI (SR leukemia): > 100 µM
- TGI (SW-620 colon): > 100 µM
- TGI (T-47D breast): > 100 µM
- TGI (TK-10 renal): > 100 µM
- TGI (U251 CNS): > 100 µM
- TGI (UACC-257 melanoma): > 100 µM
- TGI (UACC-62 melanoma): > 100 µM
- TGI (UO-31 renal): > 100 µM

Structure (SMILES): Ic1cccc(/C=C/CN2CCN(CCOC(c3ccccc3)c3ccccc3)CC2)c1
- TGI (786-0 renal): 33.7 µM
- TGI (A498 renal): 31.7 µM
- TGI (A549 NSCLC): 45 µM
- TGI (ACHN renal): > 100 µM
- TGI (BT-549 breast): 31.4 µM
- TGI (CAKI-1 renal): 41.4 µM
- TGI (CCRF-CEM leukemia): 32.4 µM
- TGI (COLO 205 colon): 65.1 µM
- TGI (DU-145 prostate): 28.3 µM
- TGI (EKVX NSCLC): 41.4 µM
- TGI (HCC-2998 colon): 20.4 µM
- TGI (HCT-116 colon): 26.8 µM
- TGI (HCT-15 colon): 34.4 µM
- TGI (HL-60(TB) leukemia): 30.9 µM
- TGI (HOP-62 NSCLC): 32.6 µM
- TGI (HOP-92 NSCLC): 29.4 µM
- TGI (HS 578T breast): 76.2 µM
- TGI (HT29 colon): 30.3 µM
- TGI (IGROV1 ovarian): 40.9 µM
- TGI (K-562 leukemia): 23.9 µM
- TGI (KM12 colon): 31 µM
- TGI (LOX IMVI melanoma): 26.8 µM
- TGI (M14 melanoma): 38.8 µM
- TGI (MALME-3M melanoma): 39.3 µM
- TGI (MCF7 breast): 30.5 µM
- TGI (MDA-MB-231 breast): 32.4 µM
- TGI (MDA-MB-435): 30.4 µM
- TGI (MDA-N): 41.9 µM
- TGI (MOLT-4 leukemia): 35.9 µM
- TGI (NCI-H226 lung): 40.2 µM
- TGI (NCI-H23 lung): 40 µM
- TGI (NCI-H460 lung): 32.4 µM
- TGI (NCI-H522 lung): 36.8 µM
- TGI (NCI/ADR-RES ovarian): 34.7 µM
- TGI (OVCAR-3 ovarian): 32.4 µM
- TGI (OVCAR-4 ovarian): 51.1 µM
- TGI (OVCAR-5 ovarian): 36.9 µM
- TGI (OVCAR-8 ovarian): 30 µM
- TGI (PC-3 prostate): 66.3 µM
- TGI (RPMI-8226 leukemia): 14.3 µM
- TGI (RXF 393 renal): 27.5 µM
- TGI (SF-268 CNS): > 100 µM
- TGI (SF-295 CNS): 33.1 µM
- TGI (SF-539 CNS): 39.8 µM
- TGI (SK-MEL-2 melanoma): 38.3 µM
- TGI (SK-MEL-28 melanoma): 50.1 µM
- TGI (SK-MEL-5 melanoma): 32.2 µM
- TGI (SK-OV-3 ovarian): 63.4 µM
- TGI (SN12C renal): 29.6 µM
- TGI (SNB-19 CNS): 34.9 µM
- TGI (SNB-75 CNS): 37.6 µM
- TGI (SR leukemia): 28.9 µM
- TGI (SW-620 colon): > 100 µM
- TGI (T-47D breast): 33.3 µM
- TGI (TK-10 renal): 31.6 µM
- TGI (U251 CNS): 29.7 µM
- TGI (UACC-257 melanoma): 31.4 µM
- TGI (UACC-62 melanoma): 37.4 µM
- TGI (UO-31 renal): 29 µM

Structure (SMILES): CCn1sc2ccccc2c1=O
- TGI (786-0 renal): 6.87 µM
- TGI (A498 renal): > 60 µM
- TGI (A549 NSCLC): 40.4 µM
- TGI (ACHN renal): 20.5 µM
- TGI (BT-549 breast): 25.7 µM
- TGI (CAKI-1 renal): 11.4 µM
- TGI (CCRF-CEM leukemia): > 48.2 µM
- TGI (COLO 205 colon): 29.3 µM
- TGI (DU-145 prostate): 49.6 µM
- TGI (EKVX NSCLC): 38.2 µM
- TGI (HCC-2998 colon): 34 µM
- TGI (HCT-116 colon): 30.7 µM
- TGI (HCT-15 colon): 27.5 µM
- TGI (HL-60(TB) leukemia): 13 µM
- TGI (HOP-62 NSCLC): 34.3 µM
- TGI (HOP-92 NSCLC): 22.5 µM
- TGI (HS 578T breast): 32.4 µM
- TGI (HT29 colon): 34 µM
- TGI (IGROV1 ovarian): 19.6 µM
- TGI (K-562 leukemia): > 100 µM
- TGI (KM12 colon): 18.8 µM
- TGI (LOX IMVI melanoma): 7.73 µM
- TGI (M14 melanoma): 12 µM
- TGI (MALME-3M melanoma): 39.6 µM
- TGI (MCF7 breast): 26.8 µM
- TGI (MDA-MB-231 breast): 27.2 µM
- TGI (MDA-MB-435): 5.82 µM
- TGI (MDA-N): 8.99 µM
- TGI (MOLT-4 leukemia): > 100 µM
- TGI (NCI-H226 lung): 50.7 µM
- TGI (NCI-H23 lung): 34.7 µM
- TGI (NCI-H460 lung): > 100 µM
- TGI (NCI-H522 lung): 5.32 µM
- TGI (NCI/ADR-RES ovarian): 69.3 µM
- TGI (OVCAR-3 ovarian): 29.7 µM
- TGI (OVCAR-4 ovarian): 89.8 µM
- TGI (OVCAR-5 ovarian): > 27.5 µM
- TGI (OVCAR-8 ovarian): 35.8 µM
- TGI (PC-3 prostate): 29.3 µM
- TGI (RPMI-8226 leukemia): > 100 µM
- TGI (RXF 393 renal): 11.7 µM
- TGI (SF-268 CNS): 34.6 µM
- TGI (SF-295 CNS): > 55.1 µM
- TGI (SF-539 CNS): 30.8 µM
- TGI (SK-MEL-2 melanoma): 53.9 µM
- TGI (SK-MEL-28 melanoma): 36 µM
- TGI (SK-MEL-5 melanoma): 25 µM
- TGI (SK-OV-3 ovarian): > 54.9 µM
- TGI (SN12C renal): 22.7 µM
- TGI (SNB-19 CNS): 32.9 µM
- TGI (SNB-75 CNS): 26.6 µM
- TGI (SR leukemia): > 100 µM
- TGI (SW-620 colon): > 58.4 µM
- TGI (T-47D breast): 35.2 µM
- TGI (TK-10 renal): 30.9 µM
- TGI (U251 CNS): 16.1 µM
- TGI (UACC-257 melanoma): 32.7 µM
- TGI (UACC-62 melanoma): 29.5 µM
